The values below come from patent EP3795574A1, “SYNTHESIS AND USAGE OF 1,2-DIAMINODIAMANTANE PLATINUM(II) COMPLEXES” (Justus-Liebig-Universität Gießen, priority 2019, dated 2021).

For data set [1] the following is noted: compared to cisplatin; cited from earlier work.
For the next data set, the system named is testicular cancer. The conditions noted are these: cited from earlier work.
The test system of data set [2] is guanosine monophosphate (GMP). As to the kind of experiment: Nucleotide binding experiment by 1H NMR, GMP. Particulars: molar ratio 1:3.5, 37 °C, 66 h, DMF-d7/D2O, compared to cisplatin. From the text: (§1) Formation of DNA cross-links is the crucial part of the platinum cytotoxicity mechanism. To study diaplatin complex 1 activity on nucleotides in comparison to cisplatin we chose guanosine monophosphate (GMP) and deoxyguanosine monophosphate (dGMP) as substrates (Fig 6). The reaction between platinum complexes and GMP or dGMP causes substitution of their leaving group ligands with nucleotide forming monoadducts that quickly lose a second leaving ligand forming bisadducts. The N7 atom of the purine fragment is known to be the preferred site of attachment to platinum, thus causing easily observable downfield NMR shifts of the adjacent H8 atom. The collected ^1H NMR data during incubation of the reaction mixtures provide time-dependent changes of the H8 atom integral, thereby providing insights into the binding rates between the studied complexes (Fig 7).
(§2) A platinum complex solution in DMF-d7 (0.27 mL, 6.9 mM) was reacted with GMP or dGMP in a molar ratio 1:3.5 introduced with a NaClO4 solution in D2O (0.33 mL, 100 mM). The reaction mixture was immediately transferred into an NMR tube and ^1H NMR data were collected every hour for 66 h at 37 °C. The pH was measured immediately after the reaction mixture was prepared and at the end of the reaction at rt.

The test system of data set [3] is deoxyguanosine monophosphate (dGMP). As to the kind of experiment: Nucleotide binding experiment by 1H NMR, dGMP. Particulars: molar ratio 1:3.5, 37 °C, 66 h, DMF-d7/D2O, compared to cisplatin.
From the text: as §1, §2

The test system of data set [4] is human ovarian cancer cell line A2780. As to the kind of experiment: Cellular viability assay (resazurin / Alamar Blue, 72 h). Particulars: A2780, 72 h at 37 °C, compared to cisplatin; result in words.
The next data set deals with A2780cis. As to the kind of experiment: Cellular viability assay (resazurin / Alamar Blue, 72 h), cisplatin-resistant variant. The conditions noted are these: 72 h at 37 °C, compared to cisplatin, result in words. For orientation: The colour change of resazurin is a common sign of viable cells or microbes.
Data set [5] can be described thus: Solubility of the complexes in solvents.

Consider `N.N.O=C([O-])C1(C(=O)[O-])CCC1.[Pt+2]` [Carboplatin], for which, in data set [1], the “increase in concentration to achieve the same effect” value is reported as 20-40 fold. Regarding `N.N.[Cl][Pt][Cl]` [Cisplatin, cis-dichlorodiamineplatinum(II)], the cure rate with testicular cancer is recorded as 90%. Regarding “cis-[1,2-diaminodiamantane]dichlorideplatinum(II) [(R,R)-1]”, the “rate of bisadduct formation” value in data set [2] and in data set [3] was “faster with (R,R)-1 than with cisplatin” in each case. Turning to “cis-[1,2-diaminodiamantane]dichlorideplatinum(II) [(S,S)-1]”, the “rate of bisadduct formation” value in data set [3] is “faster than for (R,R)-1 and cisplatin”. The cytotoxicity result (in data set [4]; with A2780cis) was “lowest efficacy” throughout. On to “cis-[1,2-diaminodiamantane]dichlorideplatinum(II) [compound 1]”, for which the results for the solubility entry in data set [5] (in DMF) and in data set [5] (in methanol) were “good solubility” and “somewhat soluble”, respectively. On to “cis-[1,2-diaminodiamantane]oxalatoplatinum(II) [(S,S)-2]”, for which the solubility result in data set [5] ([…]) is “insoluble”.
